Source: paper PMC11679724, “Novel Quinoline- and Naphthalene-Incorporated Hydrazineylidene–Propenamide Analogues as Antidiabetic Agents: Design, Synthesis, and Computational Studies” (Pharmaceuticals, 2024)
pIC50: −log10 of the molar value.

Columns and labels:
[1] = target: T1, Porcine pancreatic amylase (Sus scrofa, UniProt P00690); test: In vitro α-amylase inhibition assay (starch substrate); type: biochemical; settings: mean ± SE; starch 1%
T1 sequence (P00690 16-511): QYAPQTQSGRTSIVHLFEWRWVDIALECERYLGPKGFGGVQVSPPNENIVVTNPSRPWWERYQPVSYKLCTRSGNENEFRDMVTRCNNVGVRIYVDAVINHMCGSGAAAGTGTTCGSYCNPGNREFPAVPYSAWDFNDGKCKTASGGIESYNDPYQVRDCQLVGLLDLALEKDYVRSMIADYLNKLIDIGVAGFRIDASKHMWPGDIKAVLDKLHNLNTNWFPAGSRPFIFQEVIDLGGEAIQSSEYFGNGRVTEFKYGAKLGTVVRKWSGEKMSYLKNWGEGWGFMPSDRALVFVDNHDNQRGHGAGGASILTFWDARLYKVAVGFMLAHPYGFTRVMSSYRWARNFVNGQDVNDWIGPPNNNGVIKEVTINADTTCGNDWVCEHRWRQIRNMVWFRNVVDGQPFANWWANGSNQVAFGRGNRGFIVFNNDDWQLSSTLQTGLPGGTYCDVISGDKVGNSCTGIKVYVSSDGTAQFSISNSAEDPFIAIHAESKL
Experimental: (§1) Porcine pancreatic amylase, yeast α-glucosidase, and human recombinant aldose reductase were tested for enzyme inhibition using various substrates, such as starch (1%), pNPG (0.5 mM), and DL-glyceraldehyde (5 mM) for each enzyme. By comparing changes in the test sample absorbance levels to control values and computing inhibition percentages using the following formula, the degree of inhibition was ascertained: Inhibition (%) = [A×(control)] − [{A × (sample)}/{A × (control)} × 100].

[2] = target: human recombinant aldose reductase (Homo sapiens, UniProt P15121); test: In vitro aldose reductase inhibition assay (DL-glyceraldehyde substrate); type: biochemical; settings: for pIC50: mean ± SE, DL-glyceraldehyde 5 mM
Experimental: as §1

[3] = tested on: α-glucosidase (PDB ID: 3A4A); parameters: method as in doi:10.3390/separations9090262, PMID 35335251; settings: docking of previous study; cited from earlier work
α-amylase (PDB-ID 1DHK) = tested on: α-amylase (PDB-ID 1DHK); parameters: method as in doi:10.3390/separations9090262, PMID 35335251; settings: docking of previous study; cited from earlier work
[4] = tested on: aldose reductase (PDB ID: 1IEI); parameters: method as in doi:10.3390/separations9090262, PMID 35335251; settings: docking of previous study; cited from earlier work

pIC50 [1] | pIC50 [2] | IC50 ([2]; µg/mL value restated in µM) [µM] | Structure (SMILES) | binding affinity against α-glucosidase [3] [kcal/mol] | binding affinity against α-amylase (α-amylase (PDB-ID 1DHK)) [kcal/mol] | binding affinity against aldose reductase [4] [kcal/mol]
4.03 | 4.15 | – | CS/C(Nc1ccccc1)=C(\C#N)C(=O)Nc1ccc(C(N)=O)cc1 [Compound 5a] | – | – | –
4.37 | 4.37 | – | N#CC(C(=O)Nc1ccc(C(N)=O)cc1)C(=NNC(=O)COc1ccc2ccccc2c1)Nc1ccccc1 (centres unmarked) [Compound 7a, 4-(2-cyano-3-(2-(2-(naphthalen-2-yloxy)acetyl)hydrazineylidene)-3-(phenylamino)propanamido)benzamide] | – | – | –
4.43 | 4.39 | – | N#CC(C(=O)Nc1ccc(C(N)=O)cc1)C(=NNC(=O)COc1ccnc2ccccc12)Nc1ccccc1 (centres unmarked) [Compound 7b, 4-(2-cyano-3-(phenylamino)-3-(2-(2-(quinolin-4-yloxy)acetyl)hydrazineylidene)propanamido)benzamide] | – | – | –
4.24 | 4.29 | – | CCNC(=NNC(=O)COc1ccc2ccccc2c1)C(C#N)C(=O)Nc1ccc(C(N)=O)cc1 (centres unmarked) [Compound 7c, 4-(2-cyano-3-(ethylamino)-3-(2-(2-(naphthalen-2-yloxy)acetyl)hydrazineylidene)propanamido)benzamide] | – | – | –
4.34 | 4.47 | – | CC(=O)c1ccc(NC(=O)C(C#N)/C(=N/NC(=O)COc2ccc3ccccc3c2)Nc2ccccc2)cc1 (centres unmarked) [Compound 7d, N-(4-acetylphenyl)-2-cyano-3-(2-(2-(naphthalen-2-yloxy)acetyl)hydrazineylidene)-3-(phenylamino)propenamide] | – | – | –
4.42 | 4.37 | – | CC(=O)c1ccc(NC(=O)C(C#N)/C(=N/NC(=O)COc2ccnc3ccccc23)Nc2ccccc2)cc1 (centres unmarked) [Compound 7e, N-(4-acetylphenyl)-2-cyano-3-(phenylamino)-3-(2-(2-(quinolin-4-yloxy)acetyl) hydrazineylidene)propenamide] | – | – | –
4.21 | 4.37 | – | CCN/C(=N\NC(=O)COc1ccc2ccccc2c1)C(C#N)C(=O)Nc1ccc(C(C)=O)cc1 (centres unmarked) [Compound 7f, N-(4-acetylphenyl)-2-cyano-3-(ethylamino)-3-(2-(2-(naphthalen-2-yloxy)acetyl) hydrazineylidene)propenamide] | – | – | –
4.44 | 4.59 | 25.8 | CCN/C(=N\NC(=O)COc1ccnc2ccccc12)C(C#N)C(=O)Nc1ccc(C(C)=O)cc1 (centres unmarked) [Compound 7g, N-(4-acetylphenyl)-2-cyano-3-(ethylamino)-3-(2-(2-(quinolin-4-yloxy)acetyl) hydrazineylidene)propenamide] | – | – | –
– | – | – | O=C(O)/C=C/c1ccc(O)c(O)c1 [caffeic acid] | -8.2 | -8.1 | -7.4
